# Laboratory results published in publication PMC9254247, “Dual-sensitive antibacterial peptide nanoparticles prevent dental caries” (Theranostics, 2022).
# Read-outs that look alike come from different tables or passages of the source. No end group written: not given here.
# What was measured:
# pepsin = assay: Degradation by pepsin (RP-HPLC); assay type: in vitro ADME; conditions: peptide 100 µg/mL, pepsin 10 µg/mL, Tris buffer pH 4.0, 37 °C, 5 min, MALDI-TOF MS
# Procedure: Figure 7 The biosafety of pHly-1 NPs to normal oral and gastric organoids. […] (B and C) The representative gastric organoid images (B) and oral organoid images (C) after 500 µM pHly-1 NPs or CHX treatment. (D and E) the viability of gastric (D) and oral (E) organoids after treatment with pHly-1 NPs or CHX was assessed by CellTiter-Blue cell viability assay. Scale bar, 100 µm. Each experiment was repeated 3 times. (F) RP-HPLC analysis of pHly-1 NPs degradation by pepsin. pHly-1 NPs (100 µg/mL) was incubated with pepsin (10 µg/mL) in Tris buffer (pH 4.0) at 37 °C for 5 min and submitted to RP-HPLC analysis. The HPLC fractions were analyzed by MALDI-TOF MS. The black arrow represents the intact peptide of pHly-1 NPs and the molecular weight is 2865.1 Da (Figure S14). After 5 min of pepsin hydrolysis, the molecular weight of the mainly peptide fragment is 1650.6 Da (Figure S14). All of the data are represented as average ± s.d.
# S. mutans UA159 = assay: Bacterial killing assay (CFU counting), S. mutans UA159; assay type: cell-based, Streptococcus mutans; conditions: for bactericidal effect: 10 min
# Procedure: Minimal inhibition concentration (MIC) determination . S.mutans UA159 (ATCC 700610) and 20 clinical S.mutans strains were used. S.mutans UA159 was purchased from Shanghai Biofeng Biotechnology Co., LTD. These bacteria grown in brain heart infusion broth (BHI, Beijing Land Bridge, China) at 37 °C under anaerobic conditions. […]
# Bacterial killing by pHly-1 NPs at various pHs. pHly-1 NPs were diluted in BHI medium of different pHs (pH 4.5, 5.5, 6.8, and 7.0) to obtain specific diluted solutions (final volume of 200 μ L). 1 μ L bacterial suspension (2×10^8 CFU/mL) in the logarithmic phase was added into corresponding diluted solutions and mixed […]
# individually. […]
# aliquots of 20 μL bacterial suspension were plated on BHI agar plates. The bacterial killing activity of pHly -1 NPs was measured by counting the CFU of alive bacteria with agar plating after incubation under anaerobic conditions for 48 h at 37 °C. The results were determined and presented of three repeats. Bacterial survival(%) = CFU of bacteria treated with drugs/CFU of bacteria treated with negative control× 100% 2.
# (§1) The SYTO 9 / PI double staining and scanning electron microscopy (SEM) were also performed to evaluate the bacterial killing and bacterial membrane disruption.
# (§2) For SYTO 9/PI double staining, pHly -1 NPs was added to actively growing S. mutans UA159 (10^6 CFU/m L) at the concentration of 22 μM at pH 4.5 or pH 7.0, after 1 h incubation, the bacteria treated were imaged by using LIVE/DEAD BacLight Bacterial Viability Kit (Thermo Fisher Scientific). SYTO 9 and PI were added according to the manufacturer ’s protocol and used for labeling […]
# (§3) bacteria. […]
# (§4) For SEM, S. mutans UA159 was treated by the same way to SYTO 9/PI double staining asay and then harvested, washed, and then fixed in 2.5 % glutaraldehyde for 3 h. After dehydration by serial concentrations of ethanol solutions (10%, 25%, 50%, 75%, 95%, and 100%) and lyophiliz ation overnight, the lyophilized samples were coated with goldand then photographed by SEM.
# [1] = test system: clinically isolated S.mutans strains; assay: MIC against clinically isolated S. mutans strains; assay type: cell-based; conditions: Streptococcus mutans
# Text: Peptide and different pH of culture medium prepared. The pH of BHI medium […]
# was adjusted by HCl and NaOH. […]
# Isolation and culture of clinical S.mutans strains. Ethical approval of the study and the written consent/permission forms were obtained from Institutional Review Board (IRB) at Hunan Normal University prior to the study. For each child, written permission form was reviewed and signed by their legal guardians. Plaque -biofilm samples were collected from patients, including 16 Middle-aged and young patients and 4 children (age between 48 and 72 months) diagnosed with severe early childhood caries (S-ECC) in Changsha Stomatological Hospital. After being collected using a sterilized periodontal scaler, pooled plaque samples were transferred into 1 mL thiolglycollate solution, covered with 0.5 mL sterile paraffin wax and immediately transported to the laboratory for isolation. In order to sufficient disperse the aggregates, samples should be gently vortexed and sonicated before isolation. A series of diluted dispersed samples were plated on TYCSB at 37 °C under anaerobic conditions. Then, the suspicious clones were selected and plated on the mitis salivarius agar (MSA) plus bacitracin at 37 °C under anaerobic conditions for further isolation. The isolated S.mutans were most of identified by mass spectrometry and all identified by microbiochemical reaction again. All isolated S.mutans were stored with glycerol for subsequent experiments.
# Minimal inhibition concentration (MIC) determination . S.mutans UA159 (ATCC 700610) and 20 clinical S.mutans strains were used. S.mutans UA159 was purchased from Shanghai Biofeng Biotechnology Co., LTD. These bacteria grown in brain heart infusion broth (BHI, Beijing Land Bridge, China) at 37 °C under anaerobic conditions.
# Due to bacteria incubation under the condition of excessive acid for a long time will affect its vitality, therefore, pH 5.5 was choose as acidic condition for the MIC determination. Peptides and CHX were dissolved in BHI medium of different pHs (pH 5.5 and 7.0) using serial dilutions to obtain different diluted solutions. 2 µL of bacteria (1×10^7 CFU (colony forming units) in the logarithmic phase were added into each well of 96-well plates containing 200 µL different diluted solutions. Note that […]
# the aggregate behavior of peptides. In order to avoid interfering with the MIC test, it is important to set up the control wells which only contain different concentrations of peptides in BHI medium of different pHs. The absorbance at 600 nm was detected with a microplate reader (Multiskan Spectrum, BioTek Inc., USA) after 48 h. The inhibition rate of drugs on bacteria was calculated based on the absorbance […]
# as §1, §2, §3, §4
compound,measurement,setting,value
KIWFHAMHIIAHFIAHQHLHQHL-NH2 [pHly-1 NPs],degradation by pepsin,pepsin,rapidly degraded
"[H]/N=C(\N/C(=N/[H])NCCCCCCNC(=N)NC(=N)Nc1ccc(Cl)cc1)Nc1ccc(Cl)cc1 [CHX, chlorhexidine]",bactericidal effect,"S. mutans UA159; 22 μM, both acidic and neutral pH",no apparent bactericidal effect
same,bacterial survival,"S. mutans UA159; 22 μM, 120 min, kinetic assay",ca. 60%
same,bactericidal effect,"S. mutans UA159; 550 μM, both acidic and neutral conditions",kill bacteria completely
same,MIC,"[1]; pH 5.5, pH 5.5, range over 20 clinical strains, read-out: MIC values against 20 bacterial strains",0.5 to 2 µM
same,MIC,"[1]; pH 5.5, strain CS-1, pH 5.5, 5 repetitions, read-out: MIC",1 µM
same,MIC,"[1]; pH 5.5, strain CS-2, pH 5.5, 5 repetitions, read-out: MIC",0.5 µM
same,MIC,"[1]; pH 5.5, strain CS-3, pH 5.5, 5 repetitions, read-out: MIC",1 µM
same,MIC,"[1]; pH 5.5, strain CS-4, pH 5.5, 5 repetitions, read-out: MIC",1 µM
same,MIC,"[1]; pH 5.5, strain CS-5, pH 5.5, 5 repetitions, read-out: MIC",2 µM
same,MIC,"[1]; pH 5.5, strain CS-6, pH 5.5, 5 repetitions, read-out: MIC",1 µM
same,MIC,"[1]; pH 5.5, strain CS-7, pH 5.5, 5 repetitions, read-out: MIC",1 µM
same,MIC,"[1]; pH 5.5, strain CS-8, pH 5.5, 5 repetitions, read-out: MIC",2 µM
same,MIC,"[1]; pH 5.5, strain CS-9, pH 5.5, 5 repetitions, read-out: MIC",2 µM
same,MIC,"[1]; pH 5.5, strain CS-10, pH 5.5, 5 repetitions, read-out: MIC",1 µM
same,MIC,"[1]; pH 5.5, strain CS-11, pH 5.5, 5 repetitions, read-out: MIC",1 µM
same,MIC,"[1]; pH 5.5, strain CS-12, pH 5.5, 5 repetitions, read-out: MIC",0.5 µM
same,MIC,"[1]; pH 5.5, strain CS-13, pH 5.5, 5 repetitions, read-out: MIC",1 µM
same,MIC,"[1]; pH 5.5, strain CS-14, pH 5.5, 5 repetitions, read-out: MIC",1 µM
same,MIC,"[1]; pH 5.5, strain CS-15, pH 5.5, 5 repetitions, read-out: MIC",2 µM
same,MIC,"[1]; pH 5.5, strain CS-16, pH 5.5, 5 repetitions, read-out: MIC",1 µM
same,MIC,"[1]; pH 5.5, strain CS-17 (S-ECC child), pH 5.5, 5 repetitions, read-out: MIC",1 µM
same,MIC,"[1]; pH 5.5, strain CS-18 (S-ECC child), pH 5.5, 5 repetitions, read-out: MIC",2 µM
same,MIC,"[1]; pH 5.5, strain CS-19 (S-ECC child), pH 5.5, 5 repetitions, read-out: MIC",2 µM
same,MIC,"[1]; pH 5.5, strain CS-20 (S-ECC child), pH 5.5, 5 repetitions, read-out: MIC",2 µM
